# B1: S100A9: recombinant anti-microbial protein, a DAMP that activates TLR2 (as well as TLR4) (protein, UniProt P06702 1-114, looked up)
# Protein S100-A9: MTCKMSQLERNIETIINTFHQYSVKLGHPDTLNQGEFKELVRKDLQNFLKKENKNEKVIEHIMEDLDTNADKQLSFEEFIMLMARLTWASHEKMHEGDEGPGHHHKPGLGEGTP
# B2: denatured (heated) S100A9: heat-denatured recombinant S100A9 protein (protein, UniProt P06702 1-114, looked up)
# Protein S100-A9: B1 Protein S100-A9
# modifications: heat-denatured
# notes: heat-denatured recombinant S100A9 protein
# B3: HSPB4: recombinant small heat shock protein, a DAMP shown to mediate sterile corneal inflammation (protein, UniProt P02489 1-173, looked up)
# Alpha-crystallin A chain: MDVTIQHPWFKRTLGPFYPSRLFDQFFGEGLFEYDLLPFLSSTISPYYRQSLFRTVLDSGISEVRSDRDKFVIFLDVKHFSPEDLTVKVQDDFVEIHGKHNERQDDHGYISREFHRRYRLPSNVDQSALSCSLSADGMLTFCGPKIQTGLDATHAERAIPVSREEKPTSAPSS
# Experiments:
# [1] = test system: Pam3CSK4-induced inflammatory mediator expression in keratinocytes; assay: qRT-PCR of inflammatory mediator mRNA in keratinocytes treated with Pam3CSK4 (TLR1/2 agonist); assay type: cell-based, mouse
# Procedure: (§1) Primary cultures of mouse epidermal keratinocytes were prepared from ICR strain CD-1 outbred neonatal mice 1-3 days of age as described in detail in (Bollag W B, et al., J Invest Derm 100 240-246 (1993); Griner R, et al., J Biol Chem, 274 4663-4670 (1999)). All procedures were approved by the Institutional Animal Care and Use Committee. RAW264.7 cells, a mouse macrophage-derived cell line, were kindly provided by Drs. Qing Zhong and Carlos Isales (Augusta University) and were cultured in DMEM containing 10% fetal bovine serum and 1% penicillin and streptomycin.
# (§2) Keratinocytes were treated with or without TPA or a synthetic triacylated lipoprotein (Pam3CSK4), a TLR1/TLR2 agonist, or recombinant S100A9 (R&D Systems) or HSPB4 (MyBiosoruce) as indicated, for 2 hours in the presence and absence of different concentrations of soy PG or dioleoylphosphatidylglycerol (DOPG). Cells were harvested and RNA isolated using PerfectPure RNA tissue kits (5 PRIME, Inc, Gaithersburg, Md., USA) as per the manufacturer's protocol. Following verification of RNA integrity using a Nanodrop instrument (NanoDrop Technologies, Wilmington, Del.), RNA was reverse-transcribed to cDNA with iScript cDNA synthesis kits (Bio-Rad Laboratories, Hercules, Calif., USA) and analyzed by real-time PCR using Taqman primer/probe sets from Applied Biosystems (Life Technologies, Grand Island, N.Y.). […]
# [2] = test system: NF-κB phosphorylation/activation in RAW264.7 cells; assay: Western analysis of NF-κB phosphorylation/activation in RAW264.7 cells stimulated with Pam3CSK4; assay type: cell-based, mouse; conditions: 10 minutes, FIG. 9
# Procedure: Membranes containing transferred proteins were blocked with 5% non-fat dry milk for at least 30 minutes before incubating with the appropriate primary antibodies, overnight, followed by washing and incubating with secondary antibodies for 1 h at room temperature. Immunoreactivity was visualized using infrared imaging on an Odyssey imaging system (LI-COR Biosciences, Lincoln, Nebr.).
# [3] = test system: Pam3CSK4-induced inflammatory mediator expression in macrophage cell line RAW 264.7; assay: qRT-PCR of inflammatory mediator mRNA in RAW 264.7 macrophage cell line treated with Pam3CSK4; assay type: cell-based, mouse; conditions: 2 h
# Procedure: as §1
# (§3) Keratinocytes were treated with or without TPA or a synthetic triacylated lipoprotein (Pam3CSK4), a TLR1/TLR2 agonist, or recombinant S100A9 (R&D Systems) or HSPB4 (MyBiosoruce) as indicated, for 2 hours in the presence and absence of different concentrations of soy PG or dioleoylphosphatidylglycerol (DOPG). Cells were harvested and RNA isolated using PerfectPure RNA tissue kits (5 PRIME, Inc, Gaithersburg, Md., USA) as per the manufacturer's protocol. Following verification of RNA integrity using a Nanodrop instrument (NanoDrop Technologies, Wilmington, Del.), RNA was reverse-transcribed to cDNA with iScript cDNA synthesis kits (Bio-Rad Laboratories, Hercules, Calif., USA) and analyzed by real-time PCR using Taqman primer/probe sets from Applied Biosystems (Life Technologies, Grand Island, N.Y.). Reactions were performed using Fast Reagent PCR Master Mix (Applied Biosystems) and a StepOnePlus Real-Time PCR System (Applied Biosystems) as instructed by the manufacturer. Expression of genes of interest was determined using the delta-delta Ct method normalized to the expression of GAPDH as the endogenous housekeeping gene and expressed relative to the appropriate control group.
# TPA-induced ear edema = assay: Contact irritant (TPA) ear edema mouse in vivo model
# Procedure: Experiments were performed as described in (27). Briefly, the ears of three to five male ICR CD-1 outbred mice [25-30 g; 5-6 weeks of age from Harlan Laboratories (Indianapolis, Ind.)] were treated with acetone or TPA (0.03% in acetone), and at 1 h and 4 h after TPA, the appropriate vehicle or the treatment in vehicle was applied to each ear. Ear thickness was measured using a caliper both before and at approximately 18-20 h after TPA treatment prior to sacrifice. After sacrifice, a circular ear punch biopsy (4 mm^2) was taken, weighed, and fixed in formalin. Histological evaluation included H&E staining and immunohistochemical staining for CD45 to quantify the number of infiltrating immune cells (see below).
# (§4) Sections (10 μm) were cut from formalin-fixed paraffin-embedded ear biopsies and deparaffinized and rehydrated as described in (28). […] Multiple random sections (4 to 8 per mouse separately from the left and right ear) were counted by two independent observers in a blinded fashion, counts averaged to determine a value for each mouse ear and values statistically analyzed as described below.
# Experiments were performed as described in Clark S P; Bollag W B; Westlund K N; Ma F; Falls G; Xie D; Johnson M; Isales C M; Bhattacharyya M H: Pine oil effects on chemical and thermal injury in mice and cultured mouse dorsal root ganglion neurons. […] Ear thickness was measured using a caliper both before and at approximately 18-20 h after TPA treatment prior to sacrifice. […] Histological evaluation included H&E staining and immunohistochemical staining for CD45 to quantify the number of infiltrating immune cells (see below).
# as §4, with “(Voss K E et al., Arch. Dermatol. Res. 303 591-600 (2011)).” for “(28).”, “below. […]” for “below.”
# [4] = test system: S100A9-induced inflammatory mediator expression in keratinocytes; assay: qRT-PCR of inflammatory mediator mRNA in keratinocytes treated with recombinant S100A9 or LPS; assay type: cell-based, mouse
# Procedure: as §1, §3
# [5] = test system: TNFα protein secretion by RAW264.7 cells; assay: TNFα protein secretion by ELISA in RAW264.7 culture supernatants; assay type: cell-based, mouse; conditions: 2 h; for TNFα protein secretion: DAMP alone (S100A9 2 μg/mL; HSPB4 0.1 or 1 μg/mL), FIGS. 8A-8B
# Procedure: Cells were treated with recombinant S100A9 or recombinant HSPB4 as indicated and media collected. TNFα levels were determined in the supernatant using an ELISA kit (BD Biosciences) according to the manufacturer's instructions.
# Mouse TNFα ELISA kits from BD Biosciences (San Jose, Calif.) were used. RAW264.7 cells were treated with or without recombinant S100A9 or HSPB4 in the presence and absence of DOPG for 2 hours. Cell culture supernatants were collected and stored at −80° C. and subjected to a single freeze-thaw cycle. The ELISA assay was performed according to the manufacturer's instructions with the optical density detected in each sample within 30 minutes, at a wavelength of 450 nm and corrected at 570 nm.
# [6] = test system: HSPB4-induced inflammatory mediator expression in RAW cell line; assay: qRT-PCR of inflammatory mediator mRNA in RAW 264.7 cells treated with recombinant HSPB4; assay type: cell-based, mouse; conditions: 2 h, FIGS. 7A-7D
# Procedure: as §1, §2
# [7] = test system: S100A9-induced inflammatory mediator expression in RAW 264.7 macrophage cell line; assay: qRT-PCR of inflammatory mediator mRNA in RAW 264.7 cells treated with recombinant S100A9; assay type: cell-based, mouse; conditions: 2 h, FIGS. 6A-6D
# Procedure: as §1, §2
# [8] = co-treatment with DOPG 100 μg/mL
# [9] = recombinant S100A9 alone, keratinocytes, data not shown
molecule,measurement,setting,value
Pam3CSK4 [reference compound],inflammatory mediator expression in keratinocytes treated with TLR2 agonist,"[1]; agonist alone, in vitro",increased
same,phosphorylation/activation of NF-κB (pNFκB/NFκB ratio),[2]; 2.5 μg/mL Pam3CSK4 alone,increased
same,"mRNA levels of IL1α, IL1β, IL6 and TNFα upon stimulation","[3]; Pam3CSK4 1 or 2.5 μg/mL alone, FIGS. 3A-3D",up-regulated
"CCCCCCCCCCCCCC(=O)O[C@@H]1[C@@H](C)[C@@]2(O)[C@@H](C=C(CO)C[C@]3(O)C(=O)C(C)=C[C@@H]23)[C@@H]2C(C)(C)[C@]12OC(C)=O [TPA, 12-O-tetra-decanoylphorbol 13-acetate]",increase in ear thickness,"TPA-induced ear edema; TPA alone, no subsequent treatment with vehicle, percent change from time 0",147±16%
same,increase in ear weight,"TPA-induced ear edema; TPA alone, no subsequent treatment with vehicle, punch biopsy versus no-TPA mice",158±6%
"C=C1/C(=C\C=C2/CCC[C@]3(C)[C@@H]([C@H](C)CCCC(C)(C)O)CC[C@@H]23)C[C@@H](O)C[C@@H]1O [1,25-dihydroxyvitamin D3]",effect on ear edema,"TPA-induced ear edema; agent alone in 95% ethanol/5% water, applied 1 and 4 h after 0.03% TPA, FIGS. 10A-10C","neither 1,25-dihydroxyvitamin D3 nor soy PG alone had a significant effect"
phosphatidylglycerol [PG],S100A9-induced expression of IL-1β,"[4]; 100 μg/mL DOPG with 3 μg/mL recombinant S100A9, 2 h, FIG. 5A",inhibited
same,S100A9-induced expression of IL-6,"[4]; 100 μg/mL DOPG with 3 μg/mL recombinant S100A9, 2 h, FIG. 5B",inhibited
same,S100A9-induced expression of TNFα,"[4]; 100 μg/mL DOPG with 3 μg/mL recombinant S100A9, 2 h, FIG. 5C",inhibited
"CCCCCCCC/C=C\CCCCCCCC(=O)OC[C@H](COP(=O)(O)OCC(O)CO)OC(=O)CCCCCCC/C=C\CCCCCCCC (some centres unmarked) [DOPG, dioleoylphosphatidylglycerol]","Pam3CSK4-induced increase in the expression of all cytokines tested (IL1α, IL1β, IL6, TNFα mRNA)","[1]; DOPG at either 50 or 100 μg/mL, Pam3CSK4 1 or 2.5 μg/mL, 2-hour incubation, FIGS. 1A-1D",significantly inhibited
same,S100A9-induced increase in TNFα protein secretion,"[5]; 100 μg/mL DOPG with 2 μg/mL S100A9, FIG. 8A",inhibited
same,HSPB4-induced increase in TNFα protein secretion,"[5]; 100 μg/mL DOPG with 0.1 or 1 μg/mL HSPB4, FIG. 8B",inhibited
same,Pam3CSK4-increased phosphorylation/activation of NF-κB,"[2]; co-treatment with 100 μg/mL DOPG, 2.5 μg/mL Pam3CSK4",inhibited
same,HSPB4 induction of inflammatory mediator expression,[6]; 100 μg/mL DOPG with 0.1 or 1 μg/mL HSPB4,inhibited
same,S100A9-induced increase in inflammatory mediator expression,[7]; 100 μg/mL DOPG with 2 μg/mL S100A9,inhibit
same,Pam3CSK4-induced IL1α expression,[3]; DOPG 50 μg/mL,inhibited
same,Pam3CSK4-induced IL1β expression,[3]; DOPG 50 μg/mL,inhibited
same,Pam3CSK4 induction of TNFα,[3]; DOPG 50 or 100 μg/mL,no effect
same,Pam3CSK4-induced IL1α mRNA level,[3]; [8],inhibition
same,Pam3CSK4-induced IL1β mRNA level,[3]; [8],inhibition
same,Pam3CSK4-induced IL6 mRNA level,[3]; [8],inhibition
B1,TNFα protein secretion,[5],induce
same,IL-1α expression,"[4]; S100A9 alone, keratinocytes",only minimally stimulated
same,expression of IL1β,"[4]; recombinant S100A9 alone, 1 to 3 μg/mL, 2 h, FIG. 4B",stimulated
same,expression of IL6,"[4]; recombinant S100A9 alone, 1 to 3 μg/mL, 2 h, FIG. 4C",stimulated
same,expression of TNFα,"[4]; recombinant S100A9 alone, 1 to 3 μg/mL, 2 h, FIG. 4D",stimulated
same,expression of TLR1,[4]; [9],induced
same,expression of TLR2,[4]; [9],induced
same,"inflammatory mediator expression (IL1α, IL1β, IL6, TNFα mRNA)",[7]; 2 μg/mL recombinant S100A9 alone,increases
B2,"stimulating inflammatory mediator mRNA levels, relative to native S100A9","[4]; denatured (heated) protein, keratinocytes",significantly less effective
B3,TNFα protein secretion,[5],induce
same,"inflammatory mediator expression (IL1α, IL1β, IL6, TNFα mRNA)",[6]; 0.1 or 1 μg/mL recombinant HSPB4 alone,stimulate
